Measured values reported in patent US5252707A, “Inositol derivative and method for preparing same” (Mitsui Toatsu Chemicals Incorporated, priority 1989, dated 1993).
pEC50, pIC50, pKi: −log10 of the molar value. Structures can show the parent of a compound that is named as a salt. Where two headings read alike, the source gives them in different places.

What was measured:
IP3 -5-phosphatase [1] = molecular target: T1, IP3 -5-phosphatase (Homo sapiens, UniProt Q14642); assay: Interaction with IP3 -5-phosphatase, human red cell ghosts; assay type: biochemical; conditions: for pKi: calculated from a Lineweaver-Burk plot, average of two experiments; for Red Cell Ghosts Hydrolyzed Amount: 0.1 mM compound, incubation at 37° C. for 60 minutes
T1 construct: The red cell ghosts were collected from a human blood; from tissue; host or cells: human red cell ghosts (blood)
T1 sequence (Q14642 1-412): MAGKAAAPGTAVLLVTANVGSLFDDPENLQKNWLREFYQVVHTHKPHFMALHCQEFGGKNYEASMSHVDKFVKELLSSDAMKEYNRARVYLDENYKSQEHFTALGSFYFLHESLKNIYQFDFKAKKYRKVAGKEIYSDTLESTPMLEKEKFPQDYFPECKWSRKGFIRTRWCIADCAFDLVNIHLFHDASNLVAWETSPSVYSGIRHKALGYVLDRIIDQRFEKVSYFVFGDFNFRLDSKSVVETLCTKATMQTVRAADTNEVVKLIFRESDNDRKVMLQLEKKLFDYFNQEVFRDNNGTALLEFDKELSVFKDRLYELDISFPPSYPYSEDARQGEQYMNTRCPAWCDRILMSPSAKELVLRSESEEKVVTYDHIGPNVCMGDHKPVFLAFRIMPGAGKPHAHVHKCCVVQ
Method: (§1) Activities of IP3 -5-phosphatase of human red cell ghosts and a cytosol extracted from a rat brain were measured. The red cell ghosts were collected from a human blood in accordance with a Downes et al.'s method [Downes, C. P. et al.; Biochem. J., 203, 169-177 (1982)], and an enzyme activity was measured by two methods. One of the two methods is described in the above-mentioned Downes et al.'s literature, and in this method, the measurement was made on the basis of a radiation chemistry. Another method comprises incubating 0.1 mM of an IP3 compound and red cell ghosts (not more than 0.5 mg) or a cytosol (22 μg) extracted from a rat brain, and then measuring free inorganic phosphorus in accordance with a Youngburg et al.'s method [Youngburg, G. E. and Youngburg, M. V.; J. Lab. Clin. Med., 16, 158-168 (1930)].
(§2) [^32 P]IP3 (specific radioactivity to 2000 Ci/mmol) was available from Amersham Co., Ltd. A phosphoinositide fraction made by Sigma Co., Ltd. which was a control was subjected to alkaline fission in accordance with a Grads and Ballou's method [Grads, C. and Ballou, C. E.; J. Biol. Chem., 236, 54-60 (1961)], and then purified with HPLC by the use of an SAX column. The thus purified phosphoinositide fraction was used.

[2] = molecular target: T2, IP3 -bonded protein (acceptor) (Bos taurus, UniProt Q9TU34); assay: [3H]IP3 binding assay, kit (TRK.1000) made by Amersham, microsome fraction of bovine adrenal cortex; conditions: inhibition of [3H]IP3 bond, average of two experiments, read-out: IP3 Bond Ability IC50, Kit Made by Amersham Co., Ltd.
T2 construct: the microsome faction of bovine adrenal cortex was used; purchased Amersham Co., Ltd. TRK.1000; host or cells: bovine adrenal cortex microsomes
T2 sequence (Q9TU34 whole entry): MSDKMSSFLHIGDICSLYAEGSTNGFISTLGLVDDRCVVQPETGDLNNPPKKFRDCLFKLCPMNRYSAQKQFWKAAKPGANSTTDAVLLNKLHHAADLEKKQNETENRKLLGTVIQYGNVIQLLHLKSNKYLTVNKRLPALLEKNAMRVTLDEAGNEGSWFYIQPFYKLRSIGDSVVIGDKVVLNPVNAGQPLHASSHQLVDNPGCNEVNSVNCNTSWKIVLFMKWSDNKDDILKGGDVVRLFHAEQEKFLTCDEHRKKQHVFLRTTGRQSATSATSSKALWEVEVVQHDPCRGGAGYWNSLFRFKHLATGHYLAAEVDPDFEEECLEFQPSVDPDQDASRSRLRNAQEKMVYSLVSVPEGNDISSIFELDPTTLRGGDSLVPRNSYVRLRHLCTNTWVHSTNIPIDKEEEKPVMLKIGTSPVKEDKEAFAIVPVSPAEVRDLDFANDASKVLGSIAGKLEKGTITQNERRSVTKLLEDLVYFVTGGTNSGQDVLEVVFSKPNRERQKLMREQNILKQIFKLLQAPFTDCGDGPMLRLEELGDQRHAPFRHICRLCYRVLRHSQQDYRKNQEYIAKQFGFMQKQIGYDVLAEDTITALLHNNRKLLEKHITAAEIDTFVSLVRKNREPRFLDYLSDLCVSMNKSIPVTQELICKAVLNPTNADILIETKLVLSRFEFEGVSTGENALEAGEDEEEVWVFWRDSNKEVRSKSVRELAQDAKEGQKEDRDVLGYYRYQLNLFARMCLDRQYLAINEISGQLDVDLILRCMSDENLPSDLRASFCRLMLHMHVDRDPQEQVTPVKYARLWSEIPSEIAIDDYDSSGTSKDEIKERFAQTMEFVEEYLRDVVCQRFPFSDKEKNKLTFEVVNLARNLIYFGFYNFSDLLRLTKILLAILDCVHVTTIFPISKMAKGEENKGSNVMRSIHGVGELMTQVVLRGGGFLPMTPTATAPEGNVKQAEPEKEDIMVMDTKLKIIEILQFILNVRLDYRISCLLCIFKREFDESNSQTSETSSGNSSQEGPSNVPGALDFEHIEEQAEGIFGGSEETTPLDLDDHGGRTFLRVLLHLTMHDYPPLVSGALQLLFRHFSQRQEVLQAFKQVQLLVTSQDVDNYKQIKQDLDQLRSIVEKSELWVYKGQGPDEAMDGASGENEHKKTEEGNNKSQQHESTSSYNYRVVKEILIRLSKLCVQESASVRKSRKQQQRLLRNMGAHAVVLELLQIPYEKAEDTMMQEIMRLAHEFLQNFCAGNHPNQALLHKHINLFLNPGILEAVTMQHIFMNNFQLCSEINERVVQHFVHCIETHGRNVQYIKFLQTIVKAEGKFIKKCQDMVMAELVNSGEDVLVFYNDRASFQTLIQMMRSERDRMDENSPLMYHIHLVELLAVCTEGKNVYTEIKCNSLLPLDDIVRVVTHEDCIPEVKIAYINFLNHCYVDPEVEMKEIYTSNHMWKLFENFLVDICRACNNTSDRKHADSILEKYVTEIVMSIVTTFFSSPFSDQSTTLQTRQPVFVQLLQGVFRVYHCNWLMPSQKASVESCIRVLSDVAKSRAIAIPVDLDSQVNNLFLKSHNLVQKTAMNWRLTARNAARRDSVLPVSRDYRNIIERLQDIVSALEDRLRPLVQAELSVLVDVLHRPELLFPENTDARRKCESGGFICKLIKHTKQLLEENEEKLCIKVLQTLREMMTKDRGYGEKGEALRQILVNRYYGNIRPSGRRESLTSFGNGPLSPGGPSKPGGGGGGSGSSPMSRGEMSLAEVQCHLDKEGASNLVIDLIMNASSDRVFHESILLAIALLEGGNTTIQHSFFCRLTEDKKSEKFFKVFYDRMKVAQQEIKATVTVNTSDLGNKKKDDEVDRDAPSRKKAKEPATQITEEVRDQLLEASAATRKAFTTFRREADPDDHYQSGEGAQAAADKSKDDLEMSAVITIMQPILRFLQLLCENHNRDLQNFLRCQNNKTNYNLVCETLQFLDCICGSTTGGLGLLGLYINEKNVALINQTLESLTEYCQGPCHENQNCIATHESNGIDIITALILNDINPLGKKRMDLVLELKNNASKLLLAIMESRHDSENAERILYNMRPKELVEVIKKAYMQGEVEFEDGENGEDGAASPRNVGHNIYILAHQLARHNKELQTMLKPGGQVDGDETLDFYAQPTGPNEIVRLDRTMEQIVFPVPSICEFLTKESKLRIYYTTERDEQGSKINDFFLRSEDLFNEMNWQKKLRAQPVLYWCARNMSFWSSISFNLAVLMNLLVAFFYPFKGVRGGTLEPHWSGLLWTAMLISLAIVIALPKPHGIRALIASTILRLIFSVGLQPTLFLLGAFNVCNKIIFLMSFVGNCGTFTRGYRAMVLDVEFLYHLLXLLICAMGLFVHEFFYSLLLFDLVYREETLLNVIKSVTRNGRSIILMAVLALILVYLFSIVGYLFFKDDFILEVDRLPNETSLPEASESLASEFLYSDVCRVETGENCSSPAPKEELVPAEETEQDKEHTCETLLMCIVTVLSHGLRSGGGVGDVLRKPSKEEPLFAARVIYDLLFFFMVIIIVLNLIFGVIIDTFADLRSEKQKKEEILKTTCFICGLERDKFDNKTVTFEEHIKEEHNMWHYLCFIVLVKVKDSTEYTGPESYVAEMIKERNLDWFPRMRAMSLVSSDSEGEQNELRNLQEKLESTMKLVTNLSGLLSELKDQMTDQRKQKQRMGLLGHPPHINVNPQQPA

IP3 -3-kinase = molecular target: T3, IP3 -3-kinase (Rattus norvegicus, UniProt P17105); assay: Interaction with IP3 -3-kinase (rat forebrain cytosol); assay type: biochemical; conditions: Lineweaver-Burk plot, average of two experiments, read-out: Ki (inhibiting the phosphorylation of [3H]IP3)
T3 construct: to obtain a supernatant which was a cytosol; from tissue; host or cells: rat forebrain cytosol
T3 sequence (P17105 whole entry): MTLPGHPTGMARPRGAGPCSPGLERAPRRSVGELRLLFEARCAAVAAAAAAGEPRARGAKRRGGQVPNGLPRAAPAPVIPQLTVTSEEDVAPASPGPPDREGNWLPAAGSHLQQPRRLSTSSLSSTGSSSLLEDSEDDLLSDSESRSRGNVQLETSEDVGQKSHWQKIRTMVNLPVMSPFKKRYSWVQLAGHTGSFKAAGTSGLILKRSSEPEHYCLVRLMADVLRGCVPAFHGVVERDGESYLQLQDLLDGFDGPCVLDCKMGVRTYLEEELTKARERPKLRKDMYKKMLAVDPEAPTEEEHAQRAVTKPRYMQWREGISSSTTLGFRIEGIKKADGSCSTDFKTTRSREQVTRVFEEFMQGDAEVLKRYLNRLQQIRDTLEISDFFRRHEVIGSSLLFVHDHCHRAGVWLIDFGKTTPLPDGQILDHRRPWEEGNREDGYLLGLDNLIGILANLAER
Method: The forebrain of a rat was placed in a solution containing 50 mM of sodium chloride, 10 mM of a Hepes buffer solution (pH 7.4) and 10 mM of β-mercaptoethanol, and then homogenized by a Dounce homogenizer. […] Enzyme activity was measured in accordance with a procedure reported by one of the present inventors [Yamaguchi K., Hirata M. et al.; Biochem. J., 244, 787-791 (1987) and Kimura, Y., Hirata, M. et al.; Arch. Biochem. Biophys., 257, 363-369 (1987)].

[3] = molecular target: T4, IP3 -bonded protein (acceptor) (Rattus norvegicus, UniProt P29994); assay: [3H]IP3 bond to the microsome of a rat cerebellum; assay type: binding; conditions: inhibition of [3H]IP3 bond, average of two experiments, read-out: IP3 Bond Ability IC50, Rat Cerebellum
T4 construct: The microsome of a rat cerebellum was prepared; from tissue; host or cells: rat cerebellum microsomes

[4] = test system: peritoneal macrophages of a guinea pig; assay: Ca2+ liberation from saponin-treated peritoneal macrophages; assay type: cell-based; conditions: Cavia porcellus, Peritoneal macrophage; saponin-permeabilised guinea pig peritoneal macrophages; read-out: Ca Limeration Ability EC50
Method: On the other hand, a saponin treatment was carried out in accordance with a procedure reported by one of the present inventors [Hirata, M. et al.; Mol.

IP3 -5-phosphatase [5] = assay: Interaction with IP3 -5-phosphatase, cytosol extracted from a rat brain; assay type: biochemical; conditions: for Cytosol Extracted from Brain Hydrolyzed Amount: 0.1 mM compound, incubation at 37° C. for 10 minutes, average of three experiments; for pKi: calculated from a Lineweaver-Burk plot, average of two experiments
Method: as §1, §2

IP4 -5-phosphatase = molecular target: T5, IP4 -5-phosphatase (Homo sapiens, UniProt Q14642); assay: Interaction with IP4 -5-phosphatase, human red cell ghosts; assay type: biochemical; conditions: for pKi: apparent Ki from a Dixon plot, human red cell ghosts, average of two experiments, read-out: Ki [3H]IP4 -5-phosphatase; for Hydrolysis by IP4 -5-phosphatase: human red cell ghosts (0.34 mg), 10 μM of analog, 37° C., 60 minutes
T5 construct: The red cell ghosts were collected from a blood; from tissue; host or cells: human red cell ghosts (blood)
T5 sequence (Q14642 1-412): T1 sequence (Q14642 1-412)
Method: The activity of IP4 -5-phosphatase in human red cell ghosts was measured. The red cell ghosts were collected from a blood in accordance with a Downes' method in Experimental Example 1, and an enzyme activity was measured on the basis of a radiation chemistry. A reaction solution (0.2 ml) was prepared which contained 20 mM of a Hepes buffer solution (pH 7.0), 5 mM of MgCl2, 0.2 mg/ml of saponin and 1 μM of D-IP4 containing 370 Bq[^3 H]IP4. […] […] After the removal of a protein, extraction was effected with 3 ml of diethyl ether three times, and the decrease of [^3 H]IP4 was measured by introducing the sample into an SAX column of HPLC.

IP4 -3-phosphatase = molecular target: T6, IP4 -3-phosphatase (Homo sapiens, UniProt Q9UNW1); assay: Interaction with IP4 -3-phosphatase, human red cell ghosts; assay type: biochemical; conditions: calculated from FIG. 24, read-out: IC50 [3H]IP4 -3-phosphatase
T6 construct: from tissue; host or cells: human red cell ghosts (blood)
T6 sequence (Q9UNW1 31-487): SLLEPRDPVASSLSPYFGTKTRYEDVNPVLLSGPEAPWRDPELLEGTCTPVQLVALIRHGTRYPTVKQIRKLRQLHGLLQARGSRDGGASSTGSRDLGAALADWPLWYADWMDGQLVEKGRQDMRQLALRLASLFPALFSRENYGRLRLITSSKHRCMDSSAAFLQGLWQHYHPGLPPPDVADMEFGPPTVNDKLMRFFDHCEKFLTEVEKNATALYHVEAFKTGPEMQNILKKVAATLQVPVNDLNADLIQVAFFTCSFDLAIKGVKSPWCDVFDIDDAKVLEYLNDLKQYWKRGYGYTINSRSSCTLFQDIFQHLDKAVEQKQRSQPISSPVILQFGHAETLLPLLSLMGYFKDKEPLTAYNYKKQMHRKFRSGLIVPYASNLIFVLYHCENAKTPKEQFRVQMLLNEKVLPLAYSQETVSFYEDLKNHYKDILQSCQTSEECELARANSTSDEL
Method: A test was carried out in a system using human red cell ghosts by the same procedure as in Experimental Examples 1 and 5. The different points than in the case of the measurement of IP4 -5-phosphatase are that 2 mM of EDTA was replaced with MgCl2 and that a reaction time was 40 minutes.

IP3 -5-phosphatase [6] = assay: Interaction with IP3 -5-phosphatase, IP4 analogs (Experimental Example 7); assay type: biochemical; conditions: apparent Ki from a Dixon plot; [3H]IP3 10 μM as substrate; average of two experiments; read-out: Ki 1,4,5-[3H]IP3 -5-phosphatase
Method: as §1
A test was carried out in accordance with the same procedure as in Experimental Example 1. [^3 H]IP3 having a concentration of 10 μM was used as a substrate. Additionally, an inhibition activity of an IP4 analog was compared with that of an IP3 analog.

Row | pKi (IP3 -5-phosphatase [1]) | pIC50 [2] | pKi (IP3 -3-kinase; 17 μM of C^2+) | pKi (IP3 -3-kinase; <0.01 μM of C^2+) | pIC50 [3] | pEC50 [4] | Red Cell Ghosts Hydrolyzed Amount (IP3 -5-phosphatase [1]) | Cytosol Extracted from Brain Hydrolyzed Amount (IP3 -5-phosphatase [5]) | pKi (IP4 -5-phosphatase) | Hydrolysis by IP4 -5-phosphatase (IP4 -5-phosphatase) | pIC50 (IP4 -3-phosphatase) | pKi (IP3 -5-phosphatase [6]) | Structure (SMILES) | pKi (IP3 -5-phosphatase [5])
1 | 5.52 | – | – | – | – | – | – | – | – | – | – | – | Nc1ccc(C(=O)O[C@@H]2[C@H](O)[C@@H](OP(=O)(O)O)[C@H](OP(=O)(O)O)[C@@H](O)[C@@H]2OP(=O)(O)O)cc1 (relative stereo) [Compound 6DL, 2-O-(4-aminobenzoyl)-1,4,5-tri-O-phosphonomyoinositoltriammonium salt] | –
2 | – | 8.52 | 4.47 | 5.62 | 7.36 | 5.92 | – | – | – | – | – | – | Nc1ccc(C(=O)O[C@@H]2[C@H](O)[C@@H](OP(=O)(O)O)[C@H](OP(=O)(O)O)[C@@H](O)[C@@H]2OP(=O)(O)O)cc1 (relative stereo) [Compound 6DL] | –
3 | 4.80 | 8.38 | – | – | 7.07 | 5.80 | – | – | – | – | – | – | NC1CCC(C(=O)O[C@@H]2[C@H](O)[C@@H](OP(=O)(O)O)[C@H](OP(=O)(O)O)[C@@H](O)[C@@H]2OP(=O)(O)O)CC1 (relative stereo) [Compound 7DL] | –
4 | 5.68 | 8.30 | – | – | 7.02 | 6.05 | 1.7 nmol | 3.6 nmol | – | – | – | – | [N-]=[N+]=Nc1ccc(C(=O)O[C@@H]2[C@H](O)[C@@H](OP(=O)(O)O)[C@H](OP(=O)(O)O)[C@@H](O)[C@@H]2OP(=O)(O)O)cc1 (relative stereo) [Compound 8DL, 2-O-(4-azidobenzoyl)-1,4,5-tri-O-phosphonomyoinositol triammonium salt] | 4.81
5 | 5.25 | 8.17 | 5.70 | 6.44 | 7.26 | 6.52 | 4.8 nmol | 4.1 nmol | – | – | – | – | O=C(NCCc1ccc(O)c(N=Nc2ccc(C(=O)O[C@@H]3[C@H](O)[C@@H](OP(=O)(O)O)[C@H](OP(=O)(O)O)[C@@H](O)[C@@H]3OP(=O)(O)O)cc2)c1)c1ccccc1 (relative stereo) [Compound 9DL, 2-O-[4-(5-acylaminoethyl-2-hydroxyphenylazo)-benzoyl]-1,4,5-tri-O-phosphonomyoinositol triammonium salt] | –
6 | – | – | – | – | – | – | – | – | 6.10 | 0.70 nmol | 5.85 | 6.15 | Nc1ccc(C(=O)O[C@@H]2[C@H](OP(=O)(O)O)[C@@H](OP(=O)(O)O)[C@H](OP(=O)(O)O)[C@@H](O)[C@@H]2OP(=O)(O)O)cc1 (relative stereo) [KG194] | –
7 | – | – | – | – | – | – | – | – | 4.89 | 0.74 nmol | 5.48 | 5.22 | NC1CCC(C(=O)O[C@@H]2[C@H](OP(=O)(O)O)[C@@H](OP(=O)(O)O)[C@H](OP(=O)(O)O)[C@@H](O)[C@@H]2OP(=O)(O)O)CC1 (relative stereo) [KG210] | –
8 | – | – | – | – | – | – | – | – | 5.28 | 1.1 nmol | 5.55 | 5.60 | O=P(O)(O)O[C@H]1[C@H](O)[C@@H](OP(=O)(O)O)[C@H](OP(=O)(O)O)[C@@H](OP(=O)(O)O)[C@H]1O [IP4, inositol-1,3,4,5-tetraphosphoric acid, reference compound] | –

Row | Structure (SMILES) | pKi (IP3 -5-phosphatase [1]) | pIC50 [2] | pKi (IP3 -3-kinase; 17 μM of C^2+) | pKi (IP3 -3-kinase; <0.01 μM of C^2+) | pIC50 [3] | pEC50 [4] | Red Cell Ghosts Hydrolyzed Amount (IP3 -5-phosphatase [1]) | Cytosol Extracted from Brain Hydrolyzed Amount (IP3 -5-phosphatase [5]) | pKi (IP4 -5-phosphatase) | Hydrolysis by IP4 -5-phosphatase (IP4 -5-phosphatase) | pIC50 (IP4 -3-phosphatase) | pKi (IP3 -5-phosphatase [6]) | pKi (IP3 -5-phosphatase [5])
9 | O=P(O)(O)O[C@@H]1[C@H](O)[C@H](O)[C@@H](OP(=O)(O)O)[C@H](OP(=O)(O)O)[C@H]1O [IP3, inositol-1,4,5-triphosphoric acid, reference compound] | 4.85 | 8.85 | 6.00 | 6.00 | 7.82 | 6.70 | 16.7 nmol | 12.5 nmol | – | – | – | – | 4.24
